Data published in patent US4409210A, “Antibiotic compound” (priority 1982, dated 1983).
≈ marks a conversion by molar mass, not a printed value. Like-named read-outs stand apart in the source and are kept apart here.

Tests used:
[1] = test system: Streptococcus pyogenes S-23; assay: MIC, serial two-fold dilution method (aerobic); format: cell-based
[2] = test system: Neisseria meningitidis A20048; assay: MIC, serial two-fold dilution method (aerobic); format: cell-based
[3] = test system: Streptococcus pyogenes A9604; assay: MIC, serial two-fold dilution method (aerobic); format: cell-based
[4] = test system: Streptococcus pneumoniae A9585; assay: MIC, serial two-fold dilution method (aerobic); format: cell-based
[5] = test system: Streptococcus pneumoniae IID-Type-I; assay: MIC, serial two-fold dilution method (aerobic); format: cell-based; conditions: for MIC: read-out: minimum inhibitory concentration (MIC)
[6] = test system: Streptococcus pyogenes Dick; assay: MIC, serial two-fold dilution method (aerobic); format: cell-based; conditions: for MIC: read-out: minimum inhibitory concentration (MIC)
[7] = test system: Haemophilus influenzae A22481; assay: MIC, serial two-fold dilution method (aerobic); format: cell-based
[8] = test system: Streptococcus pneumoniae A15069; assay: MIC, serial two-fold dilution method (aerobic); format: cell-based
[9] = test system: S. aureus 209P; assay: Antibiotic sensitivity, paper disc-agar diffusion method; format: cell-based; parameters: key: S (sensitive); R (resistant); I (intermediate); conditions: nutrient agar, 2 day's incubation at 28° C., Difco discs, amount/disc per antibiotic
[10] = test system: S. pyogenes A20201; assay: Experimental infection of mice, PD50; format: in vivo; conditions: Exp. Run No. C-1313, 1.3 × 10^2 cell/mouse, 60 × LD50, im just before challenge, observed 5 days
[11] = test system: S. aureus Smith; assay: Experimental infection of mice, PD50; format: in vivo; conditions: observed 5 days
[12] = test system: C. perfringens A9635; format: in vivo, mice; conditions: Exp. Run No. C-1318, 2.5 × 10^7 cell/mouse, 11 × LD50, im just before challenge, observed 5 days
[13] = test system: S. aureus BX-1633; format: in vivo, mice; conditions: Exp. Run No. C-1319, observed 5 days
[14] = Streptococcus pneumoniae IID-Type-I, GC medium, inoculum 10^6 CFU/ml
[15] = Streptococcus pyogenes Dick, GC medium, inoculum 10^6 CFU/ml

What does the source list for `CN[C@H](CC(C)C)C(=O)N[C@H]1C(=O)N[C@@H](CC(N)=O)C(=O)N[C@H]2C(=O)N[C@H]3C(=O)N[C@H](C(=O)N[C@H](C(=O)O)c4cc(O)cc(O)c4-c4cc3ccc4O)[C@H](O)c3ccc(c(Cl)c3)Oc3cc2cc(c3O[C@@H]2O[C@H](CO)[C@@H](O)[C@H](O)[C@H]2O[C@H]2C[C@](C)(N)[C@H](O)[C@H](C)O2)Oc2ccc(cc2Cl)[C@H]1O` [Vancomycin]?
MIC ([1]; Streptococcus pyogenes, S23, read-out: minimum inhibitory concentration (MIC)): 0.8 µg/mL (≈ 0.552 µM); MIC ([2]; Neisseria meningitidis, A20048, read-out: minimum inhibitory concentration (MIC)): > 100 µg/mL; MIC ([3]; Streptococcus pyogenes, A9604, read-out: minimum inhibitory concentration (MIC)): 0.4 µg/mL (≈ 0.276 µM); MIC ([4]; Streptococcus pneumoniae, A9585, read-out: minimum inhibitory concentration (MIC)): 0.4 µg/mL (≈ 0.276 µM); MIC ([5]; Streptococcus pneumoniae): 0.8 µg/mL (≈ 0.552 µM); MIC ([6]; Streptococcus pyogenes): 0.8 µg/mL (≈ 0.552 µM); MIC ([7]; Haemophilus influenzae, A22481, read-out: minimum inhibitory concentration (MIC)): > 100 µg/mL; MIC ([8]; Streptococcus pneumoniae, A15069, read-out: minimum inhibitory concentration (MIC)): 0.4 µg/mL (≈ 0.276 µM)

With `CC[C@H]1OC(=O)[C@H](C)[C@@H](O[C@H]2C[C@@](C)(OC)[C@@H](O)[C@H](C)O2)[C@H](C)[C@@H](O[C@@H]2O[C@H](C)C[C@H](N(C)C)[C@H]2O)[C@](C)(O)C[C@@H](C)C(=O)[C@H](C)[C@@H](O)[C@]1(C)O` [Erythromycin] as the molecule, how does the “Sensitivity S. aureus 209P” value [9] read?
Its value is “S”.

Which results are given for `CC1(C)S[C@@H]2[C@H](NC(=O)[C@H](N)c3ccccc3)C(=O)N2[C@H]1C(=O)O` [Ampicillin]?
MIC ([1]; S23, Streptococcus pyogenes S-23, GC medium, inoculum 10^6 CFU/ml, read-out: minimum inhibitory concentration (MIC)): 0.013 µg/mL (≈ 0.0372 µM); MIC ([2]; Neisseria meningitidis A20048, GC medium, inoculum 10^6 CFU/ml, read-out: minimum inhibitory concentration (MIC)): 0.4 µg/mL (≈ 1.14 µM); MIC ([3]; Streptococcus pyogenes A9604, GC medium, inoculum 10^6 CFU/ml, read-out: minimum inhibitory concentration (MIC)): 0.013 µg/mL (≈ 0.0372 µM); MIC ([4]; Streptococcus pneumoniae A9585, GC medium, inoculum 10^6 CFU/ml, read-out: minimum inhibitory concentration (MIC)): 0.025 µg/mL (≈ 0.0715 µM); Sensitivity S. aureus 209P [9]: S; MIC [5, 14]: 0.025 µg/mL (≈ 0.0715 µM); MIC [6, 15]: 0.013 µg/mL (≈ 0.0372 µM); MIC ([7]; Haemophilus influenzae A22481, GC medium, inoculum 10^6 CFU/ml, read-out: minimum inhibitory concentration (MIC)): 50 µg/mL (≈ 143 µM); MIC ([8]; Streptococcus pneumoniae A15069, GC medium, inoculum 10^6 CFU/ml, read-out: minimum inhibitory concentration (MIC)): 0.025 µg/mL (≈ 0.0715 µM)

For `O=C(N[C@H](CO)[C@H](O)c1ccc([N+](=O)[O-])cc1)C(Cl)Cl` [Chloramphenicol], which “Sensitivity S. aureus 209P” value [9] is on record?
Its value is “S”.

What does the source list for Amphomycin?
minimum inhibitory concentration (MIC) ([1]; Streptococcus pyogenes S-23, GC medium, inoculum 10^6 CFU/ml): 12.5 µg/mL; minimum inhibitory concentration (MIC) ([2]; Neisseria meningitidis A20048, GC medium, inoculum 10^6 CFU/ml): > 100 µg/mL; minimum inhibitory concentration (MIC) ([3]; Streptococcus pyogenes A9604, GC medium, inoculum 10^6 CFU/ml): 12.5 µg/mL; minimum inhibitory concentration (MIC) ([4]; Streptococcus pneumoniae A9585, GC medium, inoculum 10^6 CFU/ml): 25 µg/mL; PD50 (mg/kg, im) [10]: 3.5 mg/kg; PD50 (mg/kg, im) ([11]; Exp. Run No. C-1247, 1.3 × 10^6 cell/mouse, 350 × LD50, im just before challenge): 9.0 mg/kg; PD50 (mg/kg, im) ([11]; Exp. Run No. C-1312, 1.3 × 10^6 cell/mouse, 200 × LD50, im just before challenge): 3.3 mg/kg; PD50 (mg/kg, im) [12]: 7.4 mg/kg; minimum inhibitory concentration (MIC) [5, 14]: 25 µg/mL; minimum inhibitory concentration (MIC) [6, 15]: 12.5 µg/mL; PD50 (mg/kg, im) [13]: 4.4 mg/kg; minimum inhibitory concentration (MIC) ([7]; Haemophilus influenzae A22481, GC medium, inoculum 10^6 CFU/ml): > 100 µg/mL; minimum inhibitory concentration (MIC) ([8]; Streptococcus pneumoniae A15069, GC medium, inoculum 10^6 CFU/ml): 25 µg/mL
